Results reported in US5254590A, “Acylaminophenol compounds” (Adir et Compagnie, priority 1991, dated 1993).

How the values were obtained:
[1] = tested on: hypercholesterolemic hamsters; experiment: Effect in hypercholesterolemic hamsters (total plasma cholesterol); format: in vivo, Syrian golden hamsters; settings: orally, 10 mg/kg/day
Experimental: Syrian golden hamsters were subjected to a 0.2% hypercholesterolemic diet for 3 weeks. They were then treated orally either by the vehicle for the compounds tested (control group), or by a reference product, or by an original product at the dose of 10 mg/kg/day for 2 weeks. At the end of the treatment, the total cholesterol was measured in the plasma.

[2] = target: T1, acyl CoA-cholesterol-acyl transferase (ACAT) (Mus musculus, UniProt Q61263); experiment: Determination of ACAT: inhibition of esterification of free intracellular cholesterol in macrophage line J 774; format: cell-based; settings: J774; macrophage line J 774, 24 hours, 10^-5 M, relative to placebo; read-out: percentage inhibition of ACAT activity of the macrophages
T1 construct: in the presence of a macrophage J 774 homogenate; endogenous in cells; host or cells: J774 macrophage line
T1 sequence (Q61263 1-540): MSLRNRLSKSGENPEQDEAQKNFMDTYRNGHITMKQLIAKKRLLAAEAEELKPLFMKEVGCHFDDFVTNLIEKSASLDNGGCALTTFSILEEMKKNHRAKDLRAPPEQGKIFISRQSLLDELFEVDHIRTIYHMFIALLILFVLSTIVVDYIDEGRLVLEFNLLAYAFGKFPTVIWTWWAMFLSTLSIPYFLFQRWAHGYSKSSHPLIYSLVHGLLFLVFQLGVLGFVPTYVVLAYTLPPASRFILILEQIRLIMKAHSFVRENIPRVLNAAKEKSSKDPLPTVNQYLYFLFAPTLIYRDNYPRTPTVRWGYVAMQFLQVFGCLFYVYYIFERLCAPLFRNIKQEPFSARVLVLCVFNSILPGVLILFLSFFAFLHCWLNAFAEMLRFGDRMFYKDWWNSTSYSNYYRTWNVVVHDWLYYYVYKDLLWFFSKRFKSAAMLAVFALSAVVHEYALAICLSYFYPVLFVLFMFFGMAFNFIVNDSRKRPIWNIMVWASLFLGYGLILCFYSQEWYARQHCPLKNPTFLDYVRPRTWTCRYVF
Experimental: The test products or the placebo are incubated in the presence of the macrophages for 24 hours at the concentration of 10^-5 M. The efficacy of these compounds is evaluated by calculating the ACAT activity of the macrophages incubated in the presence of a product relative to that of macrophages incubated in the presence of the placebo and is therefore expressed as a percentage inhibition.

human LDLs = experiment: Modification of the LDLs by copper sulfate (MDA production, lipid peroxidation); format: biochemical; settings: 24 hours, copper sulfate 5×10^-6 M; probucol as reference
Experimental: The human LDLs are incubated for 24 hours in the presence of copper sulfate (5×10^-6 M) with or without the test compounds (concentrations between 10^-7 M and 10^-4 M). After incubation, the peroxidation of the LDLs is evaluated by electrophoresis on agar gel and by the formation of one of the products of lipid peroxidation: malondialdehyde (MDA) according to the technique described by […] et al. (J. Clin. Invest. 77, 641-644, 1986).

[3] = target: T1, acyl CoA-cholesterol-acyl transferase (ACAT); experiment: Determination of ACAT: inhibition of esterification of free intracellular cholesterol in macrophage line J 774; format: cell-based

inhibition at 10 µM [2] [%]	SMILES	further results
95	CCCCCCCC/C=C\CCCCCCC(C)C(=O)Nc1cc(C)c(O)c(C)c1C (stereo not drawn) [Example 20, 2,3,6-Trimethyl-4-(2-methyl-9-octadecenamido)phenol cis isomer]	hypocholesterolemiant activity, level of total plasma cholesterol ([1]; 15 days (2 weeks), 0.2% hypercholesterolemic diet): normalizes the level of cholesterol in the hypercholesterolemic animals; hypocholesterolemiant activity compared with reference products (Ref. 1 and Ref. 2) ([1]; same conditions): considerably higher than that of the reference products tested
	CCCCCCCCCCC(C)(C)C(=O)Nc1c(OC)cc(OC)cc1OC [Ref. 2, 2,4,6-trimethoxy-(2,2-dimethyldodecanamido)benzene]	antioxidant activity towards human LDLs (in words) (human LDLs): completely lack this activity
92	CCCCCCCCCC(C)(C)C(=O)Nc1cc(C)c(O)c(C)c1C [Example 14, 2,3,6-Trimethyl-4-(2,2-dimethylundecanamido)phenol]	
96	CCCCCCCCCCCC(C)(C)C(=O)Nc1cc(C)c(O)c(C)c1C [Example 16, 2,3,6-Trimethyl-4-(2,2-dimethyltridecanamido)phenol]	
75	CCCCCCCC/C=C\CCCCCCCC(=O)Nc1c(OC)cc(OC)cc1OC [Ref. 1, 2,4,6-trimethoxy-(9-(Z)octadecenamido)benzene]	IC50 [3]: 3 µM; antioxidant activity towards human LDLs (in words) (human LDLs): completely lack this activity
91	CCCCCCCCCC(C)C(=O)Nc1cc(C)c(O)c(C)c1C (stereo not drawn) [Example 4, 2,3,6-Trimethyl-4-(2-methylundecanamido)phenol]	
90	CCCCC/C=C\C/C=C\CCCCCCCC(=O)Nc1cc(C)c(O)c(C)c1C [Example 21, 2,3,6-Trimethyl-4-(9,12-octadecadienamido)phenol cis, cis isomer]	
93	CCCCCCCCCCC(C)(C)C(=O)Nc1cc(C)c(O)c(C)c1C [Example 15, 2,3,6-Trimethyl-4-(2,2-dimethyldodecanamido)phenol]	
97	CCCCC/C=C\C/C=C\CCCCCCC(C)C(=O)Nc1cc(C)c(O)c(C)c1C (stereo not drawn) [Example 58, 2,3,6-Trimethyl-4-(2-methyl-9,12-octadecadienamido)phenol, cis, cis isomer]	
98	CCCCCCCCCCC1(C(=O)Nc2cc(C)c(O)c(C)c2C)CCCC1 [Example 57, 2,3,6-Trimethyl-4-[(1-decyl-cyclopent-1-yl)carboxamido]phenol]	
94	CCCCCC=CCC=CCC=CCCCCC(=O)Nc1cc(C)c(O)c(C)c1C [Example 23, 2,3,6-Trimethyl-4-(6,9,12-octadecatrienamido)phenol]	
